The numbers were not newly measured in patent publication US7867523B2, “Pharmaceutical composition” (priority 2008, dated 2011), which cites them from elsewhere.

Series [1] has as its system influenza virus. Conditions: administered six hours after infection and continued for twenty-four hours.
The subject of series [2] is immune cell types present in the blood. Conditions: one gram daily for two weeks, patients.
For series [3] the following is noted: acute and long-term, animals, oral.

Take `Oc1ccc(C=Cc2cc(O)cc(O)c2)cc1` [resveratrol, Resveratrol]: in series [1], the “antiviral effect (restricting ability of the virus to replicate)” value was “substantial”. As to `O=C1O[C@H]([C@@H](O)CO)C(O)=C1O` [vitamin C, Ascorbic acid], in series [2], the “interferon-gama production by T cells” value is given as “significantly more”, the “number of NK cells” value is given as “increased” and the “number of T cells” value is given as “remained the same”.

For Arabinogalactan, the toxicity result in series [3] is on record as “no evidence of toxicity”.
